Legend:
nine HCC cell lines = test: CCK‐8 cell proliferation assay; assay type: cell-based; conditions: Homo sapiens; post‐treatment for 144 h; read-out: half‐maximal inhibitory concentration (IC50), proliferation of HCC cell lines
Protocol: Cell viability was determined using Cell Counting Kit‐8 (CCK8; Dojindo) or 3‐(4, 5‐dimethylthiazol‐2‐yl)‐2,5‐diphenyltetrazoliumbromide (MTT, Sigma Aldrich) assay. […] Consequently, cell viability was determined using a microplate reader (Thermo Fisher) at 450 nm for CCK8 assay, or 570 nm for MTT assay, at different time points. The IC50 values and CI values were analyzed and calculated using GraphPad Prism 8 and CompuSyn (version 1.0; http://www.combosyn.com), respectively.

HCCLM3 = test: Cell proliferation assay; assay type: cell-based; conditions: Homo sapiens, HCCLM3, 144 h
Protocol: (§1) Cell viability was determined using Cell Counting Kit‐8 (CCK8; Dojindo) or 3‐(4, 5‐dimethylthiazol‐2‐yl)‐2,5‐diphenyltetrazoliumbromide (MTT, Sigma Aldrich) assay. A selection of HCC cells was exposed to gradient concentration of ZY0511 for 96–144 h, or exposed to other LSD1 inhibitors including SP2509, GSK2879552, and ORY1001 for 144 h, or exposed to DTP3, which enhanced the apoptosis induction function of GADD45B for 96 h in combination therapy. Consequently, cell viability was determined using a microplate reader (Thermo Fisher) at 450 nm for CCK8 assay, or 570 nm for MTT assay, at different time points. The IC50 values and CI values were analyzed and calculated using GraphPad Prism 8 and CompuSyn (version 1.0; http://www.combosyn.com), respectively.

Hep3B = test: Cell proliferation assay; assay type: cell-based; conditions: Homo sapiens, 144 h
Protocol: as §1

HepG2 = test: Cell proliferation assay; assay type: cell-based; conditions: Homo sapiens, HepG2, 144 h
Protocol: as §1

HuH6 = test: Cell proliferation assay; assay type: cell-based; conditions: Homo sapiens, HuH-6; HuH6, 144 h
Protocol: as §1

HuH7 = test: Cell proliferation assay; assay type: cell-based; conditions: Homo sapiens, Huh-7; HuH7, 144 h
Protocol: as §1

JHH7 = test: Cell proliferation assay; assay type: cell-based; conditions: Homo sapiens, JHH7, 144 h
Protocol: as §1

PLC/PRF/5 = test: Cell proliferation assay; assay type: cell-based; conditions: Homo sapiens; PLC/PRF/5, 144 h
Protocol: as §1

QGY7701 = test: Cell proliferation assay; assay type: cell-based; conditions: Homo sapiens, QGY7701, 144 h
Protocol: as §1

SK-Hep-1 = test: Cell proliferation assay; assay type: cell-based; conditions: Homo sapiens, SK-HEP1; SK-Hep-1, 144 h
Protocol: as §1

[1] = target: Truncated human LSD1 (residues 172–836) (Homo sapiens, UniProt O60341); test: Surface plasmon resonance (Biacore); assay type: binding; conditions: 25°C, read-out: dissociation constant (KD)
Protocol: Briefly, the truncated LSD1 was cloned into a pET28a plasmid and expressed in Escherichia coli BL21(DE3) at 18°C (Novagen). The fusion protein was purified by the nickel charged nitrilotriacetic acid (Ni‐NTA, GE Healthcare) with buffer A (20 mM Tris‐HCl, pH 8.5, 10 mM imidazole, 500 mM NaCl, and 2 mM dithiothreitol DTT) and buffer B (20 mM Tris‐HCl, Ph 8.5, 500 mM imidazole, 500 mM NaCl, and 2 mM DTT). Then, LSD1 was digested overnight with Thrombin Protease (Sigma Aldrich) to remove His‐tag and dialyzed against buffer C (20 mM Tris‐HCl, pH 8.5, 150 mM NaCl, and 2mM DTT) overnight at 4°C. The next day, the target protein was applied to Ni‐NTA again to remove the uncleaved His‐tag protein. LSD1 without His‐tag was further purified by an S200 16/600 column (GE Healthcare) in buffer C. The quality of purified LSD1 was checked by sodium dodecyl sulphate‐polyacrylamide gel electrophoresis (SDS‐PAGE).[47]
LSD1 protein was immobilized on a CM5 sensor chip by the amine‐coupling method. […] The binding kinetics was analyzed using BIAevaluation software (version 4.1, Biacore).

N[C@H]1CC[C@H](N[C@@H]2C[C@H]2c2ccccc2)CC1 [ORY1001]
IC50 (nine HCC cell lines): ≥ 28.6 µM | IC50 (HCCLM3): > 100 µM | IC50 (Hep3B): 28.6 ± 6.72 µM | IC50 (HepG2): > 100 µM | IC50 (HuH6): 46.3 ± 1.39 µM | IC50 (HuH7): > 100 µM | IC50 (JHH7): 56.2 ± 9.07 µM | IC50 (PLC/PRF/5): > 100 µM | IC50 (QGY7701): > 100 µM | IC50 (SK-Hep-1): 35.8 ± 5.05 µM

O=C(O)c1ccc(CN2CCC(CN[C@@H]3C[C@H]3c3ccccc3)CC2)cc1 [GSK2879552]
IC50 (nine HCC cell lines): ≥ 28.6 µM | IC50 (HCCLM3): > 100 µM | IC50 (Hep3B): > 100 µM | IC50 (HepG2): > 100 µM | IC50 (HuH6): > 100 µM | IC50 (HuH7): > 100 µM | IC50 (JHH7): > 100 µM | IC50 (PLC/PRF/5): > 100 µM | IC50 (QGY7701): > 100 µM | IC50 (SK-Hep-1): > 100 µM

C/C(=N\NC(=O)c1cccc(S(=O)(=O)N2CCOCC2)c1)c1cc(Cl)ccc1O [SP2509]
Kd [1]: 0.0198 µM

From PMC10209615, “Pharmacological inhibition of LSD1 suppresses growth of hepatocellular carcinoma by inducing GADD45B” (MedComm, 2023)
